Reference: patent publication US11905249B2, “Covalent inhibitors of equine encephalitis virus” (priority 2021, dated 2024)
Like-named read-outs stand apart in the source and are kept apart here.

How the values were obtained:
VEEV TC83 [1] = test: microbe, parasite or virus in culture; type: cell-based, Venezuelan equine encephalitis virus
VEEV TC83 [2] = test: microbe, parasite or virus in culture; type: cell-based, Venezuelan equine encephalitis virus; remark: listed apart in the source
VEEV nsP2 protease = VEEV nsP2 protease (Venezuelan equine encephalitis virus, UniProt P27282); test: biochemical; conditions: read-out: estimated percentage inhibition of VEEV nsP2
VEEV nsP2 protease, sequence (P27282 1003-1322 limits assumed): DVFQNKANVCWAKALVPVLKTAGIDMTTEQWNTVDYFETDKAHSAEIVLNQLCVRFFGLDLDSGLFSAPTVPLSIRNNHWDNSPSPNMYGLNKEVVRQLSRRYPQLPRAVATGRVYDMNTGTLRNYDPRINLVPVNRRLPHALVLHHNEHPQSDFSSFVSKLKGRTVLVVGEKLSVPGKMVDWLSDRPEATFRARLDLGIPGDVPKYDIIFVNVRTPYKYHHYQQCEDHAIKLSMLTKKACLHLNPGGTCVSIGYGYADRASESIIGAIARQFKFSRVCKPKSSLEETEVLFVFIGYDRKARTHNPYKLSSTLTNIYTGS

VEEV (IC-SH3) [3] = test: microbe, parasite or virus in culture; type: cell-based; conditions: Venezuelan equine encephalitis virus, Vero, read-out: EC50 (Vero)
VEEV (IC-SH3) [4] = test: microbe, parasite or virus in culture; type: cell-based; conditions: Venezuelan equine encephalitis virus, HeLa, read-out: EC50 (HeLa)
[5] = Venezuelan equine encephalitis virus, read-out: Human BE(2)-M17 (TC83) EC50 (μM)
[6] = Venezuelan equine encephalitis virus, N2a, in Mus musculus, read-out: Mouse Neuro-2a (TC83) EC50 (μM)

SMILES	EC50 (VEEV TC83 [1]; [5])	EC50 (VEEV TC83 [2]; [6])	Human BE(2)-M17 (TC83) CC50 (BE(2)-M17 cells; human)	Mouse Neuro-2a (TC83) CC50 (Neuro-2a cells; mouse)	other results
CS(=O)(=O)/C=C/CNC(=O)c1cccc2nccnc12 [Compound 34]	> 25 µM	> 25 µM	>25.00 µM	>25.00 µM	–
COC(=O)/C=C/[C@H](C)NC(=O)c1cccc2c1NC(C)(C)C[C@H]2C [Compound 25]	> 25 µM	> 25 µM	>25.00 µM	>25.00 µM	–
CN1CCN(C)C(=Nc2ccc([N+](=O)[O-])cc2C(=O)Nc2ccccc2)C1 [ML336, reference compound]	–	–	–	–	EC50 (VEEV TC83 [1]; read-out: Human BE(2)-M17 (TC83) EC50): 0.01 µM; EC50 (VEEV TC83 [2]; read-out: Mouse Neuro-2a (TC83) EC50): 0.02 ± 0.01 µM; Human BE(2)-M17 (TC83) CC50 (BE(2)-M17 cells): >2.50 µM; Mouse Neuro-2a (TC83) CC50 (Neuro-2a cells): >2.5 µM
COC(=O)/C=C/[C@H](C)NC(=O)c1cccc2c1NC(C)(C)C=C2C [Compound 24]	> 25 µM	> 25 µM	>25.00 µM	>25.00 µM	–
COC(=O)/C=C/CNC(=O)c1ccccc1Nc1ccccc1 [Compound 19]	> 25 µM	> 25 µM	>25.00 µM	>25.00 µM	–
COC(=O)/C=C/[C@H](Cc1ccccc1)NC(=O)c1c[nH]c2ccc(Cl)cc12 [Compound 28]	> 50 µM	> 50 µM	>50.00 µM	>50.00 µM	–
CS(=O)(=O)/C=C/CNC(=O)c1ccccc1Nc1ccccc1 [Compound 32]	> 25 µM	> 25 µM	27.14 µM	>25.00 µM	–
COC(=O)/C=C/CNC(=O)c1cccc2nccnc12 [Compound 22]	> 25 µM	> 25 µM	>25.00 µM	>25.00 µM	–
O=C(N[C@H](/C=C/S(=O)(=O)c1ccccc1)Cc1ccccc1)c1cccc2c1NCCC2 [Compound 43]	> 25 µM	> 25 µM	>25.00 µM	>25.00 µM	–
Cc1ccc2cccc(C(=O)NC/C=C/S(C)(=O)=O)c2n1 [Compound 31]	> 25 µM	> 25 µM	>25.00 µM	>25.00 µM	–
COC(=O)/C=C/CNC(=O)c1c[nH]c2ccc(C)cc12 [Compound 21]	> 25 µM	> 25 µM	>25.00 µM	>25.00 µM	–
C[C@@H]1CC(C)(C)Nc2c(C(=O)N[C@@H](C)/C=C/S(C)(=O)=O)cccc21 [Compound 13]	–	–	–	–	inhibition at 0.9 µM (VEEV nsP2 protease): ~71%
COC(=O)/C=C/CNC(=O)c1cccc2c1NC(C)(C)C=C2C [Compound 1]	–	–	–	–	EC50 (VEEV (IC-SH3) [3]): 0.55 µM; EC50 (VEEV (IC-SH3) [4]): 6.48 µM
COC(=O)/C=C/[C@H](Cc1ccccc1)NC(=O)c1cc(C)cc2c1NC(C)(C)C=C2C [Compound 30]	> 50 µM	> 50 µM	>50.00 µM	>50.00 µM	–
COC(=O)/C=C/CNC(=O)c1ccccc1Nc1c(Cl)ccc(C)c1Cl [Compound 23]	> 25 µM	> 25 µM	>25.00 µM	23.53 µM	–
COC(=O)/C=C/C(C)(C)NC(=O)c1cccc2c1NC(C)(C)C[C@H]2C [Compound 27]	> 25 µM	> 25 µM	>25.00 µM	>25.00 µM	–

SMILES	EC50 (VEEV TC83 [1]; [5])	EC50 (VEEV TC83 [2]; [6])	Human BE(2)-M17 (TC83) CC50 (BE(2)-M17 cells; human)	Mouse Neuro-2a (TC83) CC50 (Neuro-2a cells; mouse)	other results
C[C@@H]1CC(C)(C)Nc2c(C(=O)N[C@H](/C=C/S(=O)(=O)c3ccccc3)Cc3ccccc3)cccc21 [Compound 42]	> 25 µM	> 25 µM	>25.00 µM	>25.00 µM	–
C[C@@H]1CC(C)(C)Nc2c(C(=O)NC/C=C/S(C)(=O)=O)cccc21 [Compound 11]	–	–	–	–	inhibition at 0.9 µM (VEEV nsP2 protease): ~39%
COC(=O)/C=C/[C@H](Cc1ccccc1)NC(=O)c1cccc2c1NC(C)(C)C=C2C [Compound 29]	> 50 µM	> 50 µM	>50.00 µM	>50.00 µM	–
CC1=CC(C)(C)Nc2c(C(=O)N[C@H](/C=C/S(C)(=O)=O)Cc3ccccc3)cc(C)cc21 [Compound 37]	31.7 ± 16.7 µM	> 50 µM	>50.00 µM	>50.00 µM	–
CC1=CC(C)(C)Nc2c(C(=O)N[C@H](/C=C/S(=O)(=O)c3ccccc3)Cc3ccccc3)cccc21 [Compound 41]	> 25 µM	> 25 µM	>25.00 µM	>25.00 µM	–
CS(=O)(=O)/C=C/CNC(=O)c1ccccc1Nc1cccc(Cl)c1Cl [Compound 33]	> 25 µM	> 25 µM	5.86 µM	15.48 µM	–
COC(=O)/C=C/CNC(=O)c1cccc2ccc(C)nc12 [Compound 18]	> 25 µM	> 25 µM	>25.00 µM	>25.00 µM	–
CS(=O)(=O)/C=C/[C@H](Cc1ccccc1)NC(=O)c1cccc2cccnc12 [Compound 36]	> 25 µM	> 25 µM	>25.00 µM	>25.00 µM	–
COC(=O)/C=C/CNC(=O)c1cccc2cccnc12 [Compound 17]	> 25 µM	> 25 µM	>25.00 µM	>25.00 µM	–
COC(=O)/C=C/CNC(=O)c1ccccc1Nc1cccc(Cl)c1Cl [Compound 20]	> 25 µM	> 25 µM	>25.00 µM	1.52 µM	–
CC1=CC(C)(C)Nc2c(C(=O)NC(C)(C)/C=C/S(C)(=O)=O)cccc21 [Compound 38]	> 25 µM	> 25 µM	>25.00 µM	>25.00 µM	–
Cc1ccc(Cl)c(Nc2ccccc2C(=O)NC/C=C/S(C)(=O)=O)c1Cl [Compound 35]	18.2 ± 0.93 µM	> 25 µM	14.50 µM	>25.00 µM	–
COc1ccc2[nH]cc(C(=O)N[C@H](/C=C/S(=O)(=O)c3ccccc3)Cc3ccccc3)c2c1 [Compound 40]	23.9 ± 5.33 µM	> 25 µM	>25.00 µM	>25.00 µM	–
C[C@@H]1CC(C)(C)Nc2c(C(=O)NC(C)(C)/C=C/S(C)(=O)=O)cccc21 [Compound 39]	> 25 µM	> 25 µM	>25.00 µM	>25.00 µM	–
COC(=O)/C=C/C(C)(C)NC(=O)c1cccc2c1NC(C)(C)C=C2C [Compound 26]	> 25 µM	> 25 µM	>25.00 µM	>25.00 µM	–
CC1=CC(C)(C)Nc2c(C(=O)N[C@@H](C)/C=C/S(C)(=O)=O)cccc21 [Compound 12]	–	–	–	–	inhibition at 0.9 µM (VEEV nsP2 protease): ~59%
